Assay results: ChEMBL document CHEMBL2331210, “New 2-benzylsulfanyl-nicotinic acid based 1,3,4-oxadiazoles: their synthesis and biological evaluation” (2013)
Converted amounts (≈) assume the structure as drawn.

Legend:
K562 = experiment: Antitumor activity against human K562 cells assessed as cell growth at 0.1 uM; assay type: functional; details: read-out: Activity
MDA-MB-231 = experiment: Antitumor activity against human MDA-MB-231/ATCC cells assessed as cell growth at 0.1 uM; assay type: functional; details: read-out: Activity
RXF 393 = experiment: Antitumor activity against human RXF393 cells assessed as cell growth at 0.1 uM; assay type: functional; details: read-out: Activity
COLO 205 = experiment: Antitumor activity against human COLO205 cells assessed as cell growth at 0.1 uM; assay type: functional; details: read-out: Activity
[1] = Antitumor activity against human HCC2998 cells assessed as cell growth at 0.1 uM; assay type: functional; details: HCC 2998, read-out: Activity
OVCAR-8 = experiment: Antitumor activity against human OVCAR8 cells assessed as cell growth at 0.1 uM; assay type: functional; details: read-out: Activity
UACC-62 = experiment: Antitumor activity against human UACC62 cells assessed as cell growth at 0.1 uM; assay type: functional; details: read-out: Activity
HCT-15 = experiment: Antitumor activity against human HCT15 cells assessed as cell growth at 0.1 uM; assay type: functional; details: read-out: Activity
Streptococcus pyogenes = experiment: Antimicrobial activity against Streptococcus pyogenes MTCC 442 assessed as growth inhibition measured after overnight incubation by broth dilution method; assay type: functional
HL-60 = experiment: Antitumor activity against human HL60(TB) cells assessed as cell growth at 0.1 uM; assay type: functional; details: read-out: Activity
MDA-MB-468 = experiment: Antitumor activity against human MDA-MB-468 cells assessed as cell growth at 0.1 uM; assay type: functional; details: read-out: Activity
RPMI-8226 = experiment: Antitumor activity against human RPMI8226 cells assessed as cell growth at 0.1 uM; assay type: functional; details: read-out: Activity
PC-3 = experiment: Antitumor activity against human PC3 cells assessed as cell growth at 0.1 uM; assay type: functional; details: read-out: Activity
SNB-19 = experiment: Antitumor activity against human SNB19 cells assessed as cell growth at 0.1 uM; assay type: functional; details: read-out: Activity
CAKI-1 = experiment: Antitumor activity against human CAKI-1 cells assessed as cell growth at 0.1 uM; assay type: functional; details: read-out: Activity
Aspergillus clavatus = experiment: Antimicrobial activity against Aspergillus clavatus MTCC 1323 assessed as growth inhibition measured after overnight incubation by broth dilution method; assay type: functional
SK-MEL-2 = experiment: cells; details: Homo sapiens, SK-MEL-2, read-out: Activity
Description: Antitumor activity against human SK-MEL-2 cells assessed as cell growth at 0.1 uM

[2] = Antitumor activity against human Hs 578T cells assessed as cell growth at 0.1 uM; assay type: functional; details: read-out: Activity
LOX IMVI = experiment: Antitumor activity against human LOXIMVI cells assessed as cell growth at 0.1 uM; assay type: functional; details: read-out: Activity
M14 = experiment: Antitumor activity against human M14 cells assessed as cell growth at 0.1 uM; assay type: functional; details: read-out: Activity
SK-MEL-5 = experiment: Antitumor activity against human SK-MEL-5 cells assessed as cell growth at 0.1 uM; assay type: functional; details: read-out: Activity
SNB-75 = experiment: Antitumor activity against human SNB75 cells assessed as cell growth at 0.1 uM; assay type: functional; details: read-out: Activity
HCT-116 = experiment: Antitumor activity against human HCT116 cells assessed as cell growth at 0.1 uM; assay type: functional; details: read-out: Activity
UO-31 = experiment: Antitumor activity against human UO31 cells assessed as cell growth at 0.1 uM; assay type: functional; details: read-out: Activity
Staphylococcus aureus = experiment: Antimicrobial activity against Staphylococcus aureus MTCC 96 assessed as growth inhibition measured after overnight incubation by broth dilution method; assay type: functional
SW-620 = experiment: Antitumor activity against human SW620 cells assessed as cell growth at 0.1 uM; assay type: functional; details: read-out: Activity
DU-145 = experiment: Antitumor activity against human DU145 cells assessed as cell growth at 0.1 uM; assay type: functional; details: read-out: Activity
Aspergillus niger = experiment: Antimicrobial activity against Aspergillus niger MTCC 282 assessed as growth inhibition measured after overnight incubation by broth dilution method; assay type: functional
HOP-92 = experiment: Antitumor activity against human HOP92 cells assessed as cell growth at 0.1 uM; assay type: functional; details: read-out: Activity
NCI/ADR-RES = experiment: Antitumor activity against human NCI/ADR-RES cells assessed as cell growth at 0.1 uM; assay type: functional; details: read-out: Activity
ACHN = experiment: Antitumor activity against human ACHN cells assessed as cell growth at 0.1 uM; assay type: functional; details: read-out: Activity
SF-268 = experiment: Antitumor activity against human SF268 cells assessed as cell growth at 0.1 uM; assay type: functional; details: read-out: Activity
BT-549 = experiment: Antitumor activity against human BT549 cells assessed as cell growth at 0.1 uM; assay type: functional; details: read-out: Activity
NCI-H23 = experiment: Antitumor activity against human NCI-H23 cells assessed as cell growth at 0.1 uM; assay type: functional; details: read-out: Activity
HOP-62 = experiment: Antitumor activity against human HOP62 cells assessed as cell growth at 0.1 uM; assay type: functional; details: read-out: Activity
Escherichia coli = experiment: Antimicrobial activity against Escherichia coli MTCC 443 assessed as growth inhibition measured after overnight incubation by broth dilution method; assay type: functional
IGROV-1 = experiment: Antitumor activity against human IGROV1 cells assessed as cell growth at 0.1 uM; assay type: functional; details: read-out: Activity
A549 = experiment: Antitumor activity against human A549/ATCC cells assessed as cell growth at 0.1 uM; assay type: functional; details: read-out: Activity
SF-539 = experiment: Antitumor activity against human SF539 cells assessed as cell growth at 0.1 uM; assay type: functional; details: read-out: Activity
OVCAR-4 = experiment: Antitumor activity against human OVCAR4 cells assessed as cell growth at 0.1 uM; assay type: functional; details: read-out: Activity
[3] = Antitumor activity against human EKVX cells assessed as cell growth at 0.1 uM; assay type: functional; details: read-out: Activity
MCF7 = experiment: Antitumor activity against human MCF7 cells assessed as cell growth at 0.1 uM; assay type: functional; details: read-out: Activity
A498 = experiment: Antitumor activity against human A498 cells assessed as cell growth at 0.1 uM; assay type: functional; details: read-out: Activity
OVCAR-3 = experiment: Antitumor activity against human OVCAR3 cells assessed as cell growth at 0.1 uM; assay type: functional; details: read-out: Activity
NCI-H460 = experiment: Antitumor activity against human NCI-H460 cells assessed as cell growth at 0.1 uM; assay type: functional; details: read-out: Activity
SK-OV-3 = experiment: Antitumor activity against human SKOV3 cells assessed as cell growth at 0.1 uM; assay type: functional; details: read-out: Activity
MOLT-4 = experiment: Antitumor activity against human MOLT4 cells assessed as cell growth at 0.1 uM; assay type: functional; details: read-out: Activity
Candida albicans = experiment: Antimicrobial activity against Candida albicans MTCC 227 assessed as growth inhibition measured after overnight incubation by broth dilution method; assay type: functional
SK-MEL-28 = experiment: Antitumor activity against human SK-MEL-28 cells assessed as cell growth at 0.1 uM; assay type: functional; details: read-out: Activity
Malme-3M = experiment: Antitumor activity against human MALME-3M cells assessed as cell growth at 0.1 uM; assay type: functional; details: read-out: Activity
NCI-H522 = experiment: Antitumor activity against human NCI-H522 cells assessed as cell growth at 0.1 uM; assay type: functional; details: read-out: Activity
OVCAR-5 = experiment: Antitumor activity against human OVCAR5 cells assessed as cell growth at 0.1 uM; assay type: functional; details: read-out: Activity
HT-29 = experiment: Antitumor activity against human HT-29 cells assessed as cell growth at 0.1 uM; assay type: functional; details: read-out: Activity
MDA-MB-435 = experiment: Antitumor activity against human MDA-MB-435 cells assessed as cell growth at 0.1 uM; assay type: functional; details: read-out: Activity
SN12C = experiment: Antitumor activity against human SN12C cells assessed as cell growth at 0.1 uM; assay type: functional; details: read-out: Activity
786-0 = experiment: Antitumor activity against human 786-0 cells assessed as cell growth at 0.1 uM; assay type: functional; details: read-out: Activity
KM12 = experiment: Antitumor activity against human KM12 cells assessed as cell growth at 0.1 uM; assay type: functional; details: read-out: Activity
U-251 = experiment: Antitumor activity against human U251 cells assessed as cell growth at 0.1 uM; assay type: functional; details: read-out: Activity
T47D = experiment: Antitumor activity against human T47D cells assessed as cell growth at 0.1 uM; assay type: functional; details: read-out: Activity
SR = experiment: Antitumor activity against human SR cells assessed as cell growth at 0.1 uM; assay type: functional; details: read-out: Activity
Pseudomonas aeruginosa = experiment: Antimicrobial activity against Pseudomonas aeruginosa MTCC 2488 assessed as growth inhibition measured after overnight incubation by broth dilution method; assay type: functional
SF-295 = experiment: Antitumor activity against human SF295 cells assessed as cell growth at 0.1 uM; assay type: functional; details: read-out: Activity
UACC-257 = experiment: Antitumor activity against human UACC257 cells assessed as cell growth at 0.1 uM; assay type: functional; details: read-out: Activity
[4] = system: Mycobacterium tuberculosis; experiment: Antitubercular activity against Mycobacterium tuberculosis H37Rv assessed as growth inhibition after 12 to 28 days by L.J. agar MIC method; assay type: functional
TK-10 = experiment: Antitumor activity against human TK10 cells assessed as cell growth at 0.1 uM; assay type: functional; details: read-out: Activity

CN1CCN(C(=O)CSc2nnc(-c3cccnc3SCc3ccccc3)o2)CC1
growth at 0.1 µM (K562): 83%
growth at 0.1 µM (MDA-MB-231): 56.5%
growth at 0.1 µM (RXF 393): 89.1%
growth at 0.1 µM (COLO 205): 110%
growth at 0.1 µM [1]: 90.5%
growth at 0.1 µM (OVCAR-8): 97.7%
growth at 0.1 µM (UACC-62): 76.8%
growth at 0.1 µM (HCT-15): 86.5%
MIC (Streptococcus pyogenes): 125 µg/mL (≈ 283 µM)
growth at 0.1 µM (HL-60): 70.3%
growth at 0.1 µM (MDA-MB-468): 74.8%
growth at 0.1 µM (RPMI-8226): 61.5%
growth at 0.1 µM (PC-3): 57.4%
growth at 0.1 µM (SNB-19): 82%
growth at 0.1 µM (CAKI-1): 93.4%
MIC (Aspergillus clavatus): 1000 µg/mL (≈ 2260 µM)
growth at 0.1 µM (SK-MEL-2): 101%
growth at 0.1 µM [2]: 93.2%
growth at 0.1 µM (LOX IMVI): 90.3%
growth at 0.1 µM (M14): 99.6%
growth at 0.1 µM (SK-MEL-5): 84.8%
growth at 0.1 µM (SNB-75): 83%
growth at 0.1 µM (HCT-116): 94.7%
growth at 0.1 µM (UO-31): 30.9%
MIC (Staphylococcus aureus): 250 µg/mL (≈ 566 µM)
growth at 0.1 µM (SW-620): 97.2%
growth at 0.1 µM (DU-145): 81.7%
MIC (Aspergillus niger): 500 µg/mL (≈ 1130 µM)
growth at 0.1 µM (HOP-92): 43.3%
growth at 0.1 µM (NCI/ADR-RES): 89.2%
growth at 0.1 µM (ACHN): 80.8%
growth at 0.1 µM (SF-268): 67.5%
growth at 0.1 µM (BT-549): 95.4%
growth at 0.1 µM (NCI-H23): 87.6%
growth at 0.1 µM (HOP-62): 97%
MIC (Escherichia coli): 100 µg/mL (≈ 226 µM)
growth at 0.1 µM (IGROV-1): 75.3%
growth at 0.1 µM (A549): 68.5%
growth at 0.1 µM (SF-539): 98.6%
growth at 0.1 µM (OVCAR-4): 57.4%
growth at 0.1 µM [3]: 70.7%
growth at 0.1 µM (MCF7): 76.7%
growth at 0.1 µM (A498): 78.5%
growth at 0.1 µM (OVCAR-3): 92%
growth at 0.1 µM (NCI-H460): 90.1%
growth at 0.1 µM (SK-OV-3): 101%
growth at 0.1 µM (MOLT-4): 48.2%
MIC (Candida albicans): 500 µg/mL (≈ 1130 µM)
growth at 0.1 µM (SK-MEL-28): 107%
growth at 0.1 µM (Malme-3M): 97.1%
growth at 0.1 µM (NCI-H522): 71.3%
growth at 0.1 µM (OVCAR-5): 101%
growth at 0.1 µM (HT-29): 93.7%
growth at 0.1 µM (MDA-MB-435): 93.8%
growth at 0.1 µM (SN12C): 64.2%
growth at 0.1 µM (786-0): 109%
growth at 0.1 µM (KM12): 72.8%
growth at 0.1 µM (U-251): 83.9%
growth at 0.1 µM (T47D): 55.3%
growth at 0.1 µM (SR): 79.8%
MIC (Pseudomonas aeruginosa): 200 µg/mL (≈ 453 µM)
growth at 0.1 µM (SF-295): 89.6%
growth at 0.1 µM (UACC-257): 96.8%
growth inhibition (GI) [4]: 97%
MIC ([4]; Mycobacterium tuberculosis, H37Rv): 250 µg/mL (≈ 566 µM)
growth at 0.1 µM (TK-10): 115%
